Bridge positions count the residues as written; N and C are the ends. Square brackets hold non-standard residues; d marks the D form. Peptide text beside a SMILES is read from it. * marks the point of attachment. Phe(4-COOH) = N[C@@H](Cc1ccc(C(=O)O)cc1)C(=O)O; Bip = N[C@@H](Cc1ccc(-c2ccccc2)cc1)C(=O)O; NH(CH2)14COOH = O=C(O)CCCCCCCCCCCCCCN*; Phe(3-Me) = Cc1cccc(C[C@H](N)C(=O)O)c1; NH(CH2)12COOH = O=C(O)CCCCCCCCCCCCN*; Val(3-OH) = CC(C)(O)[C@H](N)C(=O)O; 4Pal = N[C@@H](Cc1ccncc1)C(=O)O; Cha = N[C@@H](CC1CCCCC1)C(=O)O; Carboxymethyl = O=C(O)C*; Nle = CCCC[C@H](N)C(=O)O; Orn = NCCC[C@H](N)C(=O)O; Dab = NCC[C@H](N)C(=O)O; Nva = CCC[C@H](N)C(=O)O; AEEA = NCCOCCOCC(=O)O

The target of the assay is T1, PD-1/PD-L1 interaction (PE-labeled human PD-L1-Ig binding to Jurkat cell line over-expressing human PD-1) (Homo sapiens, UniProt Q15116).
T1 construct: expressed in transfected cells; host or cells: Jurkat
T1 sequence (Q15116 25-288): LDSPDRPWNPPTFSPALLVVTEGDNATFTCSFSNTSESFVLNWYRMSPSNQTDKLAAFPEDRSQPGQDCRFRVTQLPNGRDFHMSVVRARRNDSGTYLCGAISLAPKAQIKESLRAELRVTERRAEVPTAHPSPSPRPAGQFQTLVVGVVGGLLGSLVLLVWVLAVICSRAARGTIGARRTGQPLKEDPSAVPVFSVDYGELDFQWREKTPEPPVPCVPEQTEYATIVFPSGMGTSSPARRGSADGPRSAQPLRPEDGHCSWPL
Description: Jurkat-PD-1 Cell Binding High-Content Screening Assay (CBA). In kind it is cell-based. The conditions noted are these: Jurkat cell line over-expressing human PD-1; PE-labeled PD-L1-Ig 20 nM final; read-out: Jurkat hPD1-PDL1 IC50. In short, it runs like this: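 Jurkat cells over-expressing human PD-1 (8×10^3 per well, DMEM/10% FCS) preincubated with compound 2 h at 37° C, then PE-labeled human PD-L1-Ig (20 nM final) added for 1 h. Cells fixed with paraformaldehyde, Hoechst-stained, and bound fluorescence quantified by high-content imaging.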
For the compound `CCC[C@@H]1NC(=O)CSC[C@@H](C(=O)N[C@@H](CCN)C(=O)NCCOCCOCC(=O)NCCOCCOCC(=O)NCCCCCCCCCCCCC(=O)O)NC(=O)[C@H](CO)NC(=O)[C@H](C(C)(C)O)NC(=O)[C@H](CC2CCCCC2)NC(=O)[C@H](CCN)NC(=O)[C@@H](CC(C)C)NC(=O)[C@H](CCCN)NC(=O)[C@H](Cc2ccc(C(=O)O)cc2)NC(=O)[C@H](Cc2ccc(-c3ccccc3)cc2)NC(=O)[C@H](Cc2ccc(C(=O)O)cc2)NC(=O)[C@H](Cc2cccc(C)c2)NC(=O)[C@H](CC(=O)O)NC(=O)[C@H](Cc2ccc(OCC(=O)O)cc2)NC1=O` [Compound 2883] ({CH2CO}-[Nva]Y(Carboxymethyl)D[Phe(3-Me)][Phe(4-COOH)][Bip][Phe(4-COOH)][Orn][dL][Dab][Cha][Val(3-OH)]SC[Dab][AEEA][AEEA]-{NH(CH2)12COOH}; thioether N-14), the IC50 was determined as 4.9 nM. For `CCC[C@@H]1NC(=O)CSC[C@@H](C(=O)N[C@@H](CCN)C(=O)NCCOCCOCC(=O)NCCOCCOCC(=O)NCCCCCCCCCCCCCCC(=O)O)NC(=O)[C@H](CO)NC(=O)[C@H](C(C)(C)O)NC(=O)[C@H](CC2CCCCC2)NC(=O)[C@H](CCN)NC(=O)[C@@H](CC(C)C)NC(=O)[C@H](CCCN)NC(=O)[C@H](Cc2ccc(C(=O)O)cc2)NC(=O)[C@H](Cc2ccc(-c3ccccc3)cc2)NC(=O)[C@H](Cc2ccc(C(=O)O)cc2)NC(=O)[C@H](Cc2cccc(C)c2)NC(=O)[C@H](CC(=O)O)NC(=O)[C@H](Cc2ccc(OCC(=O)O)cc2)NC1=O` [Compound 2884] ({CH2CO}-[Nva]Y(Carboxymethyl)D[Phe(3-Me)][Phe(4-COOH)][Bip][Phe(4-COOH)][Orn][dL][Dab][Cha][Val(3-OH)]SC[Dab][AEEA][AEEA]-{NH(CH2)14COOH}; thioether N-14), the IC50 amounted to 133 nM. Regarding `COc1ccc(C[C@@H]2NC(=O)[C@H](Cc3cccc(C)c3)NC(=O)[C@H](CC(=O)O)NC(=O)[C@H](Cc3ccc(C(=O)O)cc3)NC(=O)[C@H](Cc3ccncc3)NC(=O)CSC[C@@H](C(=O)N[C@@H](CCN)C(=O)NCCOCCOCC(=O)NCCOCCOCC(=O)NCCCCCCCCCCCCCCC(=O)O)NC(=O)[C@H](CO)NC(=O)[C@H](C(C)(C)O)NC(=O)[C@H](CC3CCCCC3)NC(=O)[C@H](CCN)NC(=O)[C@@H](CC(C)C)NC(=O)[C@H](CCCN)NC(=O)[C@H](Cc3ccc(C(=O)O)cc3)NC(=O)[C@H](Cc3ccc(-c4ccccc4)cc3)NC2=O)cc1` [Compound 2885] ({CH2CO}-[4Pal][Phe(4-COOH)]D[Phe(3-Me)]Y(Me)[Bip][Phe(4-COOH)][Orn][dL][Dab][Cha][Val(3-OH)]SC[Dab][AEEA][AEEA]-{NH(CH2)14COOH}; thioether N-14), the half-maximal inhibitory concentration (IC50) was 2690 nM. In the case of `Cc1cccc(C[C@@H]2NC(=O)[C@H](CC(=O)O)NC(=O)[C@H](Cc3ccc(C(=O)O)cc3)NC(=O)[C@H](CCN)NC(=O)CSC[C@@H](C(=O)N[C@@H](CCN)C(=O)NCCOCCOCC(=O)NCCOCCOCC(=O)NCCCCCCCCCCCCC(=O)O)NC(=O)[C@H](Cc3c[nH]cn3)NC(=O)[C@H](C(C)(C)O)NC(=O)[C@H](CC3CCCCC3)NC(=O)[C@H](CCN)NC(=O)[C@@H](CC(C)C)NC(=O)[C@H](CCCN)NC(=O)[C@H](Cc3ccc(C(=O)O)cc3)NC(=O)[C@H](Cc3ccc(-c4ccccc4)cc3)NC(=O)[C@H](Cc3ccc(C(=O)O)cc3)NC2=O)c1` [Compound 2886] ({CH2CO}-[Dab][Phe(4-COOH)]D[Phe(3-Me)][Phe(4-COOH)][Bip][Phe(4-COOH)][Orn][dL][Dab][Cha][Val(3-OH)]HC[Dab][AEEA][AEEA]-{NH(CH2)12COOH}; thioether N-14) it was 10 nM; in that of `Cc1cccc(C[C@@H]2NC(=O)[C@H](CC(=O)O)NC(=O)[C@H](Cc3ccc(OCC(=O)O)cc3)NC(=O)[C@H](CCN)NC(=O)CSC[C@@H](C(=O)N[C@@H](CCN)C(=O)NCCOCCOCC(=O)NCCOCCOCC(=O)NCCCCCCCCCCCCC(=O)O)NC(=O)[C@H](CO)NC(=O)[C@H](C(C)(C)O)NC(=O)[C@H](CC3CCCCC3)NC(=O)[C@H](Cc3c[nH]cn3)NC(=O)[C@@H](CC(C)C)NC(=O)[C@H](CCCN)NC(=O)[C@H](Cc3ccc(C(=O)O)cc3)NC(=O)[C@H](Cc3ccc(-c4ccccc4)cc3)NC(=O)[C@H](Cc3ccc(C(=O)O)cc3)NC2=O)c1` [Compound 2887] ({CH2CO}-[Dab]Y(Carboxymethyl)D[Phe(3-Me)][Phe(4-COOH)][Bip][Phe(4-COOH)][Orn][dL]H[Cha][Val(3-OH)]SC[Dab][AEEA][AEEA]-{NH(CH2)12COOH}; thioether N-14), 18.4 nM; in that of `Cc1cccc(C[C@@H]2NC(=O)[C@H](CC(=O)O)NC(=O)[C@H](Cc3ccc(OCC(=O)O)cc3)NC(=O)[C@H](CCN)NC(=O)CSC[C@@H](C(=O)N[C@@H](CCN)C(=O)NCCOCCOCC(=O)NCCOCCOCC(=O)NCCCCCCCCCCCCC(=O)O)NC(=O)[C@H](CCC(=O)O)NC(=O)[C@H](C(C)(C)O)NC(=O)[C@H](CC3CCCCC3)NC(=O)[C@H](Cc3c[nH]cn3)NC(=O)[C@@H](CC(C)C)NC(=O)[C@H](CCCN)NC(=O)[C@H](Cc3ccc(C(=O)O)cc3)NC(=O)[C@H](Cc3ccc(-c4ccccc4)cc3)NC(=O)[C@H](Cc3ccc(C(=O)O)cc3)NC2=O)c1` [Compound 2888] ({CH2CO}-[Dab]Y(Carboxymethyl)D[Phe(3-Me)][Phe(4-COOH)][Bip][Phe(4-COOH)][Orn][dL]H[Cha][Val(3-OH)]EC[Dab][AEEA][AEEA]-{NH(CH2)12COOH}; thioether N-14), 38.2 nM.

`Cc1cccc(C[C@@H]2NC(=O)[C@H](CC(=O)O)NC(=O)[C@H](Cc3ccc(OCC(=O)O)cc3)NC(=O)[C@H](CCN)NC(=O)CSC[C@@H](C(=O)N[C@@H](CCN)C(=O)NCCOCCOCC(=O)NCCOCCOCC(=O)NCCCCCCCCCCCCC(=O)O)NC(=O)[C@H](CC(=O)O)NC(=O)[C@H](C(C)(C)O)NC(=O)[C@H](CC3CCCCC3)NC(=O)[C@H](Cc3c[nH]cn3)NC(=O)[C@@H](CC(C)C)NC(=O)[C@H](CCCN)NC(=O)[C@H](Cc3ccc(C(=O)O)cc3)NC(=O)[C@H](Cc3ccc(-c4ccccc4)cc3)NC(=O)[C@H](Cc3ccc(C(=O)O)cc3)NC2=O)c1` [Compound 2889] ({CH2CO}-[Dab]Y(Carboxymethyl)D[Phe(3-Me)][Phe(4-COOH)][Bip][Phe(4-COOH)][Orn][dL]H[Cha][Val(3-OH)]DC[Dab][AEEA][AEEA]-{NH(CH2)12COOH}; thioether N-14): the IC50 was 52.4 nM.

Consider `Cc1cccc(C[C@@H]2NC(=O)[C@H](CC(=O)O)NC(=O)[C@H](Cc3ccc(C(=O)O)cc3)NC(=O)[C@H](CCN)NC(=O)CSC[C@@H](C(=O)N[C@@H](CCN)C(=O)NCCOCCOCC(=O)NCCOCCOCC(=O)NCCCCCCCCCCCCC(=O)O)NC(=O)[C@H](CO)NC(=O)[C@H](C(C)(C)O)NC(=O)[C@H](CC3CCCCC3)NC(=O)[C@H](Cc3c[nH]cn3)NC(=O)[C@@H](CC(C)C)NC(=O)[C@H](CCCN)NC(=O)[C@H](Cc3ccc(C(=O)O)cc3)NC(=O)[C@H](Cc3ccc(-c4ccccc4)cc3)NC(=O)[C@H](Cc3ccc(C(=O)O)cc3)NC2=O)c1` [Compound 2890] ({CH2CO}-[Dab][Phe(4-COOH)]D[Phe(3-Me)][Phe(4-COOH)][Bip][Phe(4-COOH)][Orn][dL]H[Cha][Val(3-OH)]SC[Dab][AEEA][AEEA]-{NH(CH2)12COOH}; thioether N-14), for which the IC50 amounted to 31.1 nM. With `CCCC[C@@H]1NC(=O)CSC[C@@H](C(=O)N[C@@H](CCN)C(=O)NCCOCCOCC(=O)NCCOCCOCC(=O)NCCCCCCCCCCCCC(=O)O)NC(=O)[C@H](CO)NC(=O)[C@H](C(C)(C)O)NC(=O)[C@H](CC2CCCCC2)NC(=O)[C@H](CCN)NC(=O)[C@@H](CC(C)C)NC(=O)[C@H](CCCN)NC(=O)[C@H](Cc2ccc(C(=O)O)cc2)NC(=O)[C@H](Cc2ccc(-c3ccccc3)cc2)NC(=O)[C@H](Cc2ccc(C(=O)O)cc2)NC(=O)[C@H](Cc2cccc(C)c2)NC(=O)[C@H](CC(=O)O)NC(=O)[C@H](Cc2ccc(OCC(=O)O)cc2)NC1=O` [Compound 2891] ({CH2CO}-[Nle]Y(Carboxymethyl)D[Phe(3-Me)][Phe(4-COOH)][Bip][Phe(4-COOH)][Orn][dL][Dab][Cha][Val(3-OH)]SC[Dab][AEEA][AEEA]-{NH(CH2)12COOH}; thioether N-14), the IC50 came out at 2.6 nM.

In the case of `CCCC[C@@H]1NC(=O)CSC[C@@H](C(=O)N[C@@H](CCN)C(=O)NCCOCCOCC(=O)NCCOCCOCC(=O)NCCCCCCCCCCCCC(=O)O)NC(=O)[C@H](CCC(=O)O)NC(=O)[C@H](C(C)(C)O)NC(=O)[C@H](CC2CCCCC2)NC(=O)[C@H](CCN)NC(=O)[C@@H](CC(C)C)NC(=O)[C@H](CCCN)NC(=O)[C@H](Cc2ccc(C(=O)O)cc2)NC(=O)[C@H](Cc2ccc(-c3ccccc3)cc2)NC(=O)[C@H](Cc2ccc(C(=O)O)cc2)NC(=O)[C@H](Cc2cccc(C)c2)NC(=O)[C@H](CC(=O)O)NC(=O)[C@H](Cc2ccc(OCC(=O)O)cc2)NC1=O` [Compound 2892] ({CH2CO}-[Nle]Y(Carboxymethyl)D[Phe(3-Me)][Phe(4-COOH)][Bip][Phe(4-COOH)][Orn][dL][Dab][Cha][Val(3-OH)]EC[Dab][AEEA][AEEA]-{NH(CH2)12COOH}; thioether N-14), the IC50 was found to be 26.2 nM. In the case of `CCCC[C@@H]1NC(=O)CSC[C@@H](C(=O)N[C@@H](CCN)C(=O)NCCOCCOCC(=O)NCCOCCOCC(=O)NCCCCCCCCCCCCC(=O)O)NC(=O)[C@H](CC(=O)O)NC(=O)[C@H](C(C)(C)O)NC(=O)[C@H](CC2CCCCC2)NC(=O)[C@H](CCN)NC(=O)[C@@H](CC(C)C)NC(=O)[C@H](CCCN)NC(=O)[C@H](Cc2ccc(C(=O)O)cc2)NC(=O)[C@H](Cc2ccc(-c3ccccc3)cc2)NC(=O)[C@H](Cc2ccc(C(=O)O)cc2)NC(=O)[C@H](Cc2cccc(C)c2)NC(=O)[C@H](CC(=O)O)NC(=O)[C@H](Cc2ccc(OCC(=O)O)cc2)NC1=O` [Compound 2893] ({CH2CO}-[Nle]Y(Carboxymethyl)D[Phe(3-Me)][Phe(4-COOH)][Bip][Phe(4-COOH)][Orn][dL][Dab][Cha][Val(3-OH)]DC[Dab][AEEA][AEEA]-{NH(CH2)12COOH}; thioether N-14), the IC50 was found to be 19.5 nM.

Source of the values: US20260022142A1, “MACROCYCLIC IMMUNOMODULATORS” (Bristol-Myers Squibb Company, priority 2022, published 2026).
